Read-outs that look alike come from different tables or passages of the source.
How the values were obtained:
Test in all cases: Kinase selectivity, DiscoverX scanMAX Kinase assay panel (% control)
Format in all cases: binding
[1] = target: T1, kinases of the scanMAX Kinase assay panel (Homo sapiens, UniProt P00519, Q252H); settings: 1 uM
T1 construct: purchased DiscoverX Co. (contract measurement) scanMAX Kinase assay panel
How it was run: (§1)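 Read-out is % control, normalised so a positive-control compound sits at 0% and DMSO at 100%: (test − positive)/(negative − positive)×100. Each kinase received the compound at 1 uM in DMSO. A value below 35% counts as activity.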

[2] = target: T2, kinases of the scanMAX Kinase assay panel (Homo sapiens, UniProt P07332); settings: FES; 1 uM
T2 construct: purchased DiscoverX Co. (contract measurement) scanMAX Kinase assay panel
How it was run: as §1

[3] = target: T3, kinases of the scanMAX Kinase assay panel (Homo sapiens, UniProt P08581, Y1235D); settings: MET(Y1235D); 1 uM
T3 construct: purchased DiscoverX Co. (contract measurement) scanMAX Kinase assay panel
How it was run: as §1

[4] = target: T4, kinases of the scanMAX Kinase assay panel (Homo sapiens, UniProt P36888, K663Q); settings: FLT3(K663Q); 1 uM
T4 construct: purchased DiscoverX Co. (contract measurement) scanMAX Kinase assay panel
T4 sequence (P36888 27-993 K663Q): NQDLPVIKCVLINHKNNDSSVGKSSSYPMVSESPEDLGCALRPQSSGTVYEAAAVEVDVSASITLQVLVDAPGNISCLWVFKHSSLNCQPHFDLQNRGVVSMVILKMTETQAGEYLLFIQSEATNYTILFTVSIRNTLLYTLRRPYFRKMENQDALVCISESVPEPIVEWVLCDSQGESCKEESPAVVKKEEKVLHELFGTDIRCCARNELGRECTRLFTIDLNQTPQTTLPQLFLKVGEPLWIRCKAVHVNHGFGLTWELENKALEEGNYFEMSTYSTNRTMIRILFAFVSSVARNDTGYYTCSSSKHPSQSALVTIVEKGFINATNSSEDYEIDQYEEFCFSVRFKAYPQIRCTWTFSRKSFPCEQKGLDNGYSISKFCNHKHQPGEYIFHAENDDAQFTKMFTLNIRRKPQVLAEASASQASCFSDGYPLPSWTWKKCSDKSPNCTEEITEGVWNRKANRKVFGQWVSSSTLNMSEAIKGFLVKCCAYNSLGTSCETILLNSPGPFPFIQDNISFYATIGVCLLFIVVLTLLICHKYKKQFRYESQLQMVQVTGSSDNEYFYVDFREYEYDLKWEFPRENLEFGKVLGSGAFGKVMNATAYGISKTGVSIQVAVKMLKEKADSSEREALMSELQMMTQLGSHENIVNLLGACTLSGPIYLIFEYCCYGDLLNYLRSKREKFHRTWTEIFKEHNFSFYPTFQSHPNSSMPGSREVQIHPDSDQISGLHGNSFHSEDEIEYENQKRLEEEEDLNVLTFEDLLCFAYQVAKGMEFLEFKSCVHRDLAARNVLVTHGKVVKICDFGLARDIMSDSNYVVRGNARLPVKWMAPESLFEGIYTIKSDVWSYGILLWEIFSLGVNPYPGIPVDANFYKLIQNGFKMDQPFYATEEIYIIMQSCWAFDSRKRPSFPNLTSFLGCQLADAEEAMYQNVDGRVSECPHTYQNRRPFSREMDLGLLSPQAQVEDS
How it was run: as §1

[5] = target: T5, kinases of the scanMAX Kinase assay panel (Homo sapiens, UniProt Q14164); settings: IKK-epsilon; 1 uM
T5 construct: purchased DiscoverX Co. (contract measurement) scanMAX Kinase assay panel
T5 sequence (Q14164 1-716): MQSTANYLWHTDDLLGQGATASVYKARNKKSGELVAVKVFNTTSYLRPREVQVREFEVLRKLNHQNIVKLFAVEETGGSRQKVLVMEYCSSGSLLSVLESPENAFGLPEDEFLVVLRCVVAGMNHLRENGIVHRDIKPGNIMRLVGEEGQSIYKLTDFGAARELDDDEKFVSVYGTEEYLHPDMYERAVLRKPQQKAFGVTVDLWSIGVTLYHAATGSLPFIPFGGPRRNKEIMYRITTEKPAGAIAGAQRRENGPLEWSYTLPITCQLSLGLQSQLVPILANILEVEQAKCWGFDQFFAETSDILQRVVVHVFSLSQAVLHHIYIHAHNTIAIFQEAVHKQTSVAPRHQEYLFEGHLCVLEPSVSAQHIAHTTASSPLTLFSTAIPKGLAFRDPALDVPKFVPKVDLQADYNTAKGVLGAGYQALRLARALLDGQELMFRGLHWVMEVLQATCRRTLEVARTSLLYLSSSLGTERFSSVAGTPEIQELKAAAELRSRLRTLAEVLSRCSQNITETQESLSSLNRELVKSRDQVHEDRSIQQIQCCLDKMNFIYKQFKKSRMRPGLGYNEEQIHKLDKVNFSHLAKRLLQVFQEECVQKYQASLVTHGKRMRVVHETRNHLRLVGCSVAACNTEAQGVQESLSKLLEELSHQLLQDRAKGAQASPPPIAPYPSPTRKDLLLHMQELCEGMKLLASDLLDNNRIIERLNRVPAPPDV
How it was run: as §1

[6] = target: T6, kinases of the scanMAX Kinase assay panel (Homo sapiens, UniProt Q9UK32); settings: 1 uM in DMSO
T6 construct: purchased DiscoverX Co. (contract measurement) scanMAX Kinase assay panel
How it was run: as §1

[7] = kinase RSK4(Kin.Dom.1-N-terminal), read-out: % control, RSK4(Kin.Dom.1-N-terminal)
[8] = kinase RSK4(Kin.Dom.2-C-terminal), read-out: % control, RSK4(Kin.Dom.2-C-terminal)

T3 sequence (P08581 25-1390 Y1235D): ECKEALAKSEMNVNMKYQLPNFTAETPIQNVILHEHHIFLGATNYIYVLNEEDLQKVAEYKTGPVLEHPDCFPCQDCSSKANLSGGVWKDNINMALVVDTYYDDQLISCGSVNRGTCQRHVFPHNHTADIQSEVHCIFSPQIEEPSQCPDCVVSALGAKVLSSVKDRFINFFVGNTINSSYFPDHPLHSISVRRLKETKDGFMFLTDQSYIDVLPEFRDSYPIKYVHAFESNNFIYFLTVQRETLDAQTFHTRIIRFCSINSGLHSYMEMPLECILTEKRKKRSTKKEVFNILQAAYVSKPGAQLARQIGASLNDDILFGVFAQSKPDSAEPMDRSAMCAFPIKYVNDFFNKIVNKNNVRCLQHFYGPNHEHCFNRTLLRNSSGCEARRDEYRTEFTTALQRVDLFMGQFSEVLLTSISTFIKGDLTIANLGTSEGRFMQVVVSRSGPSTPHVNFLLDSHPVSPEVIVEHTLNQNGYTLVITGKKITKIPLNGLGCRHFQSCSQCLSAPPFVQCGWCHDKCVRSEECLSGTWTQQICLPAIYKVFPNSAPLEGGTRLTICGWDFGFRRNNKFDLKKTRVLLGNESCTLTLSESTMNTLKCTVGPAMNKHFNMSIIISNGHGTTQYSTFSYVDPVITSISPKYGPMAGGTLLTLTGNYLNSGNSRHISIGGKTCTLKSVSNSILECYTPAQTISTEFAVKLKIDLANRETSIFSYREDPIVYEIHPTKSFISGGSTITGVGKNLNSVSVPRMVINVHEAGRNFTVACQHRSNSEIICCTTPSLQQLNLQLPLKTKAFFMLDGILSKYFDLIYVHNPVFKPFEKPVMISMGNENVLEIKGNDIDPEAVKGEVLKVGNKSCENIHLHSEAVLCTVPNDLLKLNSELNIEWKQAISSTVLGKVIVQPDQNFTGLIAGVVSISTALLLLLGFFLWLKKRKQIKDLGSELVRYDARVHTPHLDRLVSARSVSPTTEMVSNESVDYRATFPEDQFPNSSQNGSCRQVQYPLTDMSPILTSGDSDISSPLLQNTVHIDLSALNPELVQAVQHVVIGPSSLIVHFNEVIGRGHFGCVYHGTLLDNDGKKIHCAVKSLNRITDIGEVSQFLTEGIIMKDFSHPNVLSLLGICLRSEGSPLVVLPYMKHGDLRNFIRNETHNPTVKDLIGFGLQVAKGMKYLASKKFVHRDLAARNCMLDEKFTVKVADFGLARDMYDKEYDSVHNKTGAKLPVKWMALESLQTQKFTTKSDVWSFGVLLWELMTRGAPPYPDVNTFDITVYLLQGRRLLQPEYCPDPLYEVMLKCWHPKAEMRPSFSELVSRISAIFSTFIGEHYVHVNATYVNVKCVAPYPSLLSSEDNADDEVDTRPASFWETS
T6 sequence (Q9UK32 whole entry): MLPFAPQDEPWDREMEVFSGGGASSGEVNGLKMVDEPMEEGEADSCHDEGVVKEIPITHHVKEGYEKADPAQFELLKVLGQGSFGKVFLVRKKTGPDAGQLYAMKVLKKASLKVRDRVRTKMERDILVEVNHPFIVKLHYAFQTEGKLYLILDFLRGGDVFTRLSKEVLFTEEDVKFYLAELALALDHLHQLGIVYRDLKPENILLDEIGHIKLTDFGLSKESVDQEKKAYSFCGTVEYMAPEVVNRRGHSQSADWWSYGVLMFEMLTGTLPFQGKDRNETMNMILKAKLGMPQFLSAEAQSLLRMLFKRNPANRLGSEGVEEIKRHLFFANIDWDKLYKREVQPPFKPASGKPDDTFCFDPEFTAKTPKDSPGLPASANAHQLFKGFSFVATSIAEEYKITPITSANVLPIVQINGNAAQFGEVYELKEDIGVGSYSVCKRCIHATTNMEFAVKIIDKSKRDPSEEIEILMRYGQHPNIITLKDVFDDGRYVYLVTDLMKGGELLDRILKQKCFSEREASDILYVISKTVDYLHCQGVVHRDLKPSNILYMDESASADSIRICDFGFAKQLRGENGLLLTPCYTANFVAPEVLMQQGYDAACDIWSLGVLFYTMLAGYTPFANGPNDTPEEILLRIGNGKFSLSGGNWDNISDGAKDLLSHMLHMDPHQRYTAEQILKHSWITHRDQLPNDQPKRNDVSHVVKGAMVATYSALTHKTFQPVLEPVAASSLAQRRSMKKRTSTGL
T2 sequence (P07332 whole entry): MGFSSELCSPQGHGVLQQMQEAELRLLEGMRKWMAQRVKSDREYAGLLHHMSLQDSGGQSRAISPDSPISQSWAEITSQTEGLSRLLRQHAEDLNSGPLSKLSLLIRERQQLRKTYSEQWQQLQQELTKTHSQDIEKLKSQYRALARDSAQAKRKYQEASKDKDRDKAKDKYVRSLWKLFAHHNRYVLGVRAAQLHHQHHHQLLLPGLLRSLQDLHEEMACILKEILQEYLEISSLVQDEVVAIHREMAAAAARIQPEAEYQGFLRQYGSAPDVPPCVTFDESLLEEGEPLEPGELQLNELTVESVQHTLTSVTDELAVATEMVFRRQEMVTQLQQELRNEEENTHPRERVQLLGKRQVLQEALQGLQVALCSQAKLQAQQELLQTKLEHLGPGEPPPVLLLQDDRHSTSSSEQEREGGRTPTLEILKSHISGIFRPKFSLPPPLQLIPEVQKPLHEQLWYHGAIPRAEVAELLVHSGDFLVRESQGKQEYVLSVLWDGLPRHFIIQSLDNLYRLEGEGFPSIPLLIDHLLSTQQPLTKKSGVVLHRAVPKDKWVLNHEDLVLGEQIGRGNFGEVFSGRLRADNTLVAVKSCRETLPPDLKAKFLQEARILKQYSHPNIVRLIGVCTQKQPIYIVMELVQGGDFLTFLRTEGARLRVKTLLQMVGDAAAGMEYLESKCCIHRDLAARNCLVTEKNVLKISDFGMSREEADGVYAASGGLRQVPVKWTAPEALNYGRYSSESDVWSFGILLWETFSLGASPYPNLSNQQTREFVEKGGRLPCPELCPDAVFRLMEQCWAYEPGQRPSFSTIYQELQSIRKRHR

| Structure (SMILES) | remaining binding at 1 µM ([1]; ABL1(Q252H)-nonphosphorylated) | remaining binding at 1 µM ([1]; ABL1(Q252H)-phosphorylated) | remaining binding at 1 µM [2] | remaining binding at 1 µM [3] | remaining binding at 1 µM [4] | remaining binding at 1 µM [5] | remaining binding at 1 µM [6, 7] | remaining binding at 1 µM [6, 8] |
| --- | --- | --- | --- | --- | --- | --- | --- | --- |
| CNc1nc(Nc2ccc(C(=O)N3CCOCC3)cc2OC)nc2[nH]cc(C#N)c12 [Example 1, 2-((2-methoxy-4-(morpholine-4-carbonyl)phenyl)amino)-4-(methylamino)-7H-pyrrolo[2,3-d]pyrimidine-5-carbonitrile] | 57% | 100% | 61% | 82% | 92% | 98% | 79% | 77% |
| CC1(Nc2nc(Nc3cnn([C@H]4CCN(C5COC5)C[C@@H]4F)c3Cl)nc3[nH]cc(C#N)c23)CC1 [Example 52, 2-((5-chloro-1-((3S,4S)-3-fluoro-1-(oxetane-3-yl)piperidine-4-yl)-1H-pyrazole-4-yl)amino)((1-methylcyclopropyl)amino)-7H-pyrrolo[2,3-d]pyrimidine-5-carbonitrile] | 1.1% | 0.25% | 1.3% | 31% | 0.1% | 9.9% | 7.1% | 75% |
| CCNc1nc(Nc2ccc(C(=O)N3CCC(N4CCOCC4)CC3)cc2OC)nc2[nH]cc(C(F)(F)F)c12 [Example 104, (4-((4-(ethylamino)-5-(trifluoromethyl)-7H-pyrrolo[2,3-d]pyrimidine-2-yl)amino)-3-methoxyphenyl)(4-morpholinopiperidine-1-yl)methanone] | 99% | 82% | 36% | 100% | 64% | 95% | 95% | 97% |
